In patent US9884851B2, “Heterocycle-bisamide inhibitors of scavenger receptor BI” (THE BROAD INSTITUTE, INC., priority 2012, dated 2018):
Values after ≈ are worked out from the molar mass of the structure shown. Read-outs that look alike come from different tables or passages of the source.

How the values were obtained:
[1] = biological target: T1, murine SR-BI, isoform 1 (Mus musculus, UniProt Q61009); assay: DiI-HDL uptake assay (primary assay); format: cell-based; details: ldlA[mSR-BI] cells, 3 hours with compound
T1 construct: expressed in transfected cells; host or cells: ldlA[mSR-BI], Chinese hamster ovary (CHO) cells lacking LDL receptor (Krieger Laboratory)
T1 sequence (Q61009 1-509): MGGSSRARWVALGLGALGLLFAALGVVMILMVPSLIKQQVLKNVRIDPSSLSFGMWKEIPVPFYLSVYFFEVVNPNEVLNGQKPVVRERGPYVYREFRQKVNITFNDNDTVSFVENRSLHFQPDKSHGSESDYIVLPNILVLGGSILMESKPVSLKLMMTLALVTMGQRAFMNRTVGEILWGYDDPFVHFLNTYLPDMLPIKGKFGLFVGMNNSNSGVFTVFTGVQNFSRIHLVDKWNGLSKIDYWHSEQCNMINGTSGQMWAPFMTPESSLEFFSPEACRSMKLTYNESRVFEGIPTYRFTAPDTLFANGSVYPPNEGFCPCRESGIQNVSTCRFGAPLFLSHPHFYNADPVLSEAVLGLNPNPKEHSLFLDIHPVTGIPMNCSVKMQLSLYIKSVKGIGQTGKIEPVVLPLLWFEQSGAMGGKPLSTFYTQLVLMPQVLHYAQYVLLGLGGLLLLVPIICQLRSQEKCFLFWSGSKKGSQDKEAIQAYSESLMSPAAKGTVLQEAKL
Experimental: The following cell lines were used in this study: • ldlA[mSR-BI] is a Chinese hamster ovary (CHO) cell line that overexpresses murine SR-BI, isoform 1 (NP_058021) and was obtained from the (Krieger Laboratory). This cell line was used for the primary assay and several secondary assays. […] Assays DiI-HDL Uptake Assay (Primary Assay AID Nos. 488896, 493194, 540354 588392, 588553, 588548, 588754, 588828, 588833)
ldlA[mSR-BI] cells were plated into 384-well plates at 30 μl per well and incubated overnight. As a measurable surrogate for cholesterol uptake, human HDL particles were treated with the lipophilic fluorescent dye DiI and exposed to ldlA[mSR-BI] cells in lipoprotein-free media (Ham's F12/0.5% fatty acid-free Bovine Serum Albumin (BSA)/25 mM HEPES pH 7.4 plus 10 μg protein/ml DiI-HDL). Cells took up the DiI via SR-BI over 3 hours in the presence of compound. After significant uptake of the DiI, the cells became fluorescent. The level of fluorescence correlates with the amount of DiI uptake and can be measured with a standard plate reader (here a PerkinElmer EnVision plate reader was used). The uptake of lipid (represented by DiI) was inhibited by the positive control compound BLT-1 or with an excess of HDL untreated with DiI. Primary HTS data were analyzed in Genedata Screener Assay Analyzer, and were normalized against DMSO and the positive control (1 μM BLT-1). For the HTS, the average of two replicates was used to rank order activity and to choose compounds for retests. For dose studies, percent (%) activity was determined for each concentration and the concentration response curves (CRCs) were generated with Genedata Condeseo.
To identify novel inhibitors, SR-BI-mediated lipid uptake was measured in an engineered cell line that minimized potential uptake by other mechanisms, including via the LDL receptor (1). ldlA[mSR-BI] cells overexpress murine isoform 1 and selectively take up HDL lipid at similar levels as “has been reported for cultured mouse adrenal cells, perfused organs, and liver, adrenal gland and ovary in vivo” (1). This primary cell-based assay was used in a pilot screen that identified BLTs 1 through 5. The assay was slightly modified from the original protocol of Nieland et al. to increase throughput and to ease automation procedures.
Briefly, the plate reader was switched to a Perkin-Elmer EnVision, several washing steps were eliminated, and the cell number per well was reduced without impacting the robustness of the assay. The automated assay was first tested with a validation set of 2,240 compounds. These compounds were tested in duplicate with in-plate neutral (DMSO) and positive (1 μM BLT-1) controls. Robustness, reproducibility, and variability parameters were analyzed before initiating the full HTS. The HTS was run over the course of several weeks. Data were normalized relative to controls, and plate patterns were corrected using a multiplicative algorithm in Genedata Screener Assay Analyzer. For each compound, the average of the two replicates was determined and used for subsequent analysis.

[2] = test system: HCVcc and HCVpp; details: primary human hepatocytes and/or human hepatoma cell lines; cited from earlier work
[3] = test system: hepatitis C virus (HCV); assay: In vitro testing with Huh-7.5 cells infected with HCV; format: cell-based; details: for inhibition of HCV replication (in words): Huh-7.5 cells infected with Jcl 378-1 TagRFP (MOI=0.1), 3 dpi
Experimental: A series of tests were conducted using the compound of Formula II (CID53393835/ML279), other known inhibitors of SR-BI and controls with cells infected with hepatitis C virus (HCV). The cells (Huh-7.5 cells infected with Jcl 378-1 TagRFP (MOI=0.1) 3 dpi) were treated with the following SR-BI compounds and controls:
Three different infection protocols were followed: (1) no wash—virus inoculum was removed 4hpi and fresh medium containing compounds added without washing cells; (2) 5× wash—virus inoculum was removed 4hpi, cells were washed 5× with PBS and fresh medium containing compounds added; and (3) no wash Opt—infection were performed in serum-free OptiMem; virus inoculum was removed 4hpi and fresh medium containing compounds added without washing cells. FIG. 90 provides a comparison of the three different infection set-ups. FIG. 91 provides a comparison of two independent experiments.

[4] = Solubility in PBS; format: physicochemical; details: PBS pH 7.4, 23° C., 1% DMSO
Experimental: We noticed that the concentration of the probe fluctuated through the course of the assay (data not shown). We believe that this fluctuation is due to the low kinetic solubility of the probe. Thus, we decided to determine the amount of undissolved probe present in the well after it was treated with PBS for a given length of time, relative to the amount of undissolved probe at the start of the assay. The wells were centrifuged and the supernatant was removed after various time points, then acetonitrile was added to dissolve the remaining solid in the wells, and the amount of probe was quantified. […] The stability of the probe was confirmed by measuring stability in human plasma, with >99% remaining after a 5-hour incubation period. […] FIG. 5 summarizes known properties of the probe.

[5] = test system: ldlA[mSR-BI] cells; assay: Cell cytotoxicity assay (CellTiter-Glo)
Experimental: It is possible that a compound will cause cells to decrease HDL-mediated DiI uptake due to nonspecific consequences of cellular toxicity, representing a second class of false positive hits. The cells were treated with compounds for 3 hours or 24 hours, and then cell viability was measured using the CellTiter-Glo Assay (Promega), a luciferase-based reagent that measures cellular ATP levels. The compounds were tested at different concentrations to determine IC50 values. […] Data were normalized against DMSO and the positive control (1 μM BLT-1) in Genedata Assay Analyzer.
All available dry powder samples of the remaining, non-quenching compounds were procured from commercial sources and purities were determined. The compounds obtained were then retested in the primary assay and in cytotoxicity assays. We wanted to rule out any compounds that were cytotoxic, especially in the 3-hour time span of the primary DiI-HDL uptake assay. Therefore, compounds were tested in ldl[mSR-BI] cells for cytotoxicity at 3 hours and 24 hours using the CellTiter-Glo assay (Promega) that measures cellular ATP as a marker of cell viability. […] Compounds were screened for inhibition of endocytosis using labeled transferrin, which is known to bind the transferrin receptor, enter cells by clathrin-mediated endocytosis, and move to endosomes before being recycled to the cell surface.

[6] = test system: endocytosis of transferrin; assay: Transferrin endocytosis assay; format: cell-based, Chinese hamster; details: concentrations up to 35 μM
Text: Transferrin Endocytosis Assay (SA 3: AID No. 602134)
This assay measures the endocytosis of an independent ligand, transferrin, which is not taken up via SR-BI but by clathrin-mediated endocytosis; thus providing a measure of the selectivity of the inhibitors. Alexa-594-labeled transferrin is taken into the cell via endocytosis and localization of labeled transferrin can be quantitated in the various intracellular compartments. […] Inhibitors of interest should act selectively at SR-BI and should have no activity in this assay.
Cells were pre-treated with compound for 3 hours and then treated with the Alexa-594 transferrin reagent for 30 minutes (Catalog No. T-13343; Invitrogen) in serum-free media. Plates of cells were then placed onto ice, washed with ice cold PBS, and then fixed with 4% paraformaldehyde. In addition, the nuclei were stained with 300 nM 4′,6-diamidino-2-phenylindole (DAPI) (Catalog No. 21490; Invitrogen). The cells were imaged with the Molecular Devices IXM microscope. Translocation measurements were performed using MetaExpress software and normalized for cell number.

[7] = biological target: T2, SR-BI (Mus musculus, UniProt Q61009); assay: HDL binding assay (Alexa 488 HDL); format: cell-based, murine; parameters: expressed in transfected cells; host or cells: ldlA[mSR-BI], Chinese hamster ovary (CHO) cells lacking LDL receptor (Krieger Laboratory); details: Alexa Fluor 488-labeled HDL
T2 sequence (Q61009 1-509): T1 sequence (Q61009 1-509)
Experimental: HDL binding was assessed using Alexa Fluor 488-labeled HDL particles. For this assay, the Alexa 488 dye was directly covalently bound to apolipoprotein components of the HDL particle via primary amines; thus, no transfer of the fluorophore to cell membranes occurs. Instead, direct binding of the HDL particles to SR-BI can be measured. As a positive control, BLT-1, which is known to increase binding, was used at 1 μM. It is possible that a compound can reduce binding of HDL to the receptor, and this would lead to a decrease in signal. This assay is used to characterize the mechanism of action of a particular compound; therefore, any outcome in the assay is acceptable. Data were normalized against DMSO and the positive control (1 μM BLT-1) in Genedata Assay Analyzer.

[8] = hamsters; cited from earlier work
[9] = mice; cited from earlier work
[10] = biological target: T2, SR-BI; details: cited from earlier work

C[C@@H](C(=O)NC1CCCC1)N(C(=O)Cn1nnc(-c2ccc3c(c2)OCO3)n1)C1CCCCC1 [(S)-isomer] showed an IC50 [1] of 1600 nM.
For COc1c(NC(=O)C(=O)c2ccc(OCCN3CCOCC3)c3ccccc23)cc(C(C)(C)C)cc1NS(C)(=O)=O [ITX-5061], the “HCVcc and HCVpp infection (in words)” value [2] is given as “inhibit HCVcc and HCVpp infection”, the IC50 [1] is given as 254 nM and the “inhibition of HCV replication (in words)” value ([3]; listed as 9) is given as “able to inhibit HCV replication”. The “inhibition of HCV replication (in words)” value ([3]; listed as SRB1-9) was “inhibited viral replication” and the “mean fluorescence intensity (MFI) of HCV positive cells (in words)” value ([3]; dose dependence) was “this increase was not seen”.
Work on COCC(=O)N1CCc2cc(-c3csc(NC(=O)c4cc(OC)cc(OC)c4)n3)ccc21 [ML278, reference compound] yielded an IC50 [1] of 0.93 nM.
For COc1ccc(-c2nnn(CC(=O)N(C3CCCCC3)C(C)C(=O)NC3CCCC3)n2)cc1OC (centres unmarked) [MLS000888573, reference compound], the solubility [4] was 114 µM (≈ 55.2 µg/mL), the IC50 ([5]; read-out: 3 h CellTiter-Glo IC50, 3 hours treatment) was > 35000 nM and the IC50 ([5]; read-out: 24 h CellTiter-Glo cytotoxicity IC50, 24 hours treatment) was > 35000 nM. The “endocytosis of transferrin (in words)” value [6] was “not grossly perturbing cellular membrane trafficking pathways”, the IC50 [1] was 51 nM and the IC50 ([1]; listed as hit compound) was 58 nM. It also gave an AC50 [7] of 600 nM.
In the case of CC(C)(C)OC(=O)N1CCN(c2ccc(NC(=O)c3cc([N+](=O)[O-])ccc3Cl)cc2)CC1 [R-138329], the “HDL-cholesterol (in words)” value [8] is given as “increased HDL-cholesterol” and the “HDL-cholesterol (in words)” value [9] is given as “increased HDL-cholesterol”.
In the case of COc1ccc(Cl)cc1C(=O)NCCc1ccc(S(=O)(=O)NC(=O)NC2CCCCC2)cc1 [glyburide], the “cholesterol efflux inhibition (in words)” value [10] is given as “relatively weak inhibitor of cholesterol efflux”.
